Laboratory results: ChEMBL document CHEMBL3217461, “Synthesis of tetrazoleisoxazoline hybrids as a new class of tubulin polymerization inhibitors” (Medchemcomm, 2012)
Activity calls are given as the source filed them. The rule behind the calls is not given here.

Tests used:
A549 [1] = assay: Cytotoxicity against human A549 cells after 48 hrs by MTT assay; type: functional, cell-based; conditions: A549, 48 h
MDA-MB-231 = assay: Cytotoxicity against human MDA-MB-231 cells after 48 hrs by MTT assay; type: functional, cell-based; conditions: MDA-MB-231, 48 h
A549 [2] = assay: Cell cycle arrest in human A549 cells assessed as accumulation at G0 phase at 2 uM after 24 hrs using propidium iodide staining by flow cytometer analysis (reference value: 0.56%); type: functional
A549 [3] = assay: Cell cycle arrest in human A549 cells assessed as accumulation at G1 phase at 2 uM after 24 hrs using propidium iodide staining by flow cytometer analysis (reference value: 80.03%); type: functional
A549 [4] = assay: Cell cycle arrest in human A549 cells assessed as accumulation at S phase at 2 uM after 24 hrs using propidium iodide staining by flow cytometer analysis (reference value: 5.43%); type: functional
A549 [5] = assay: Cell cycle arrest in human A549 cells assessed as accumulation at G2/M phase at 2 uM after 24 hrs using propidium iodide staining by flow cytometer analysis (reference value: 13.98%); type: functional
Tubulin (Bos taurus) = Tubulin (Bos taurus) (UniProt Q6B856+Q862L2+Q862F3); assay: Displacement of [3H]-colchicine from purified bovine brain tubulin at 5 uM after 1 hr by scintillation proximity assay
Tubulin (Homo sapiens) [6] = target: T1, Tubulin (Homo sapiens) (UniProt P68371+Q9H4B7+P0DPH7+P68366+Q13509+Q71U36+P04350+Q3ZCM7+P07437+P68363+Q9BQE3+Q6PEY2+Q13885+Q9BVA1+Q9BUF5); assay: Inhibition of tubulin polymerization in human A549 cells assessed as microtubule network at 2 uM after 24 hrs by immunofluorescence microscopy analysis; type: cell-based
Tubulin (Homo sapiens) [7] = target: T1, Tubulin (Homo sapiens); assay: Inhibition of gamma-tubulin in human A549 cells assessed as decrease in protein organization pattern at 2 uM after 24 hrs by immunofluorescence analysis; type: cell-based
Tubulin (Homo sapiens) [8] = target: T1, Tubulin (Homo sapiens); assay: Inhibition of tubulin (unknown origin) at 2 uM after 30 to 60 mins by HTS assay; type: protein-complex assay
A549 [9] = assay: Induction of apoptosis in human A549 cells assessed as increase of caspase-3 expression at 2 uM after 2 hrs by Western blot analysis; type: functional, cell-based

inhibition (Tubulin (Bos taurus))	inhibition (Tubulin (Homo sapiens) [6])	inhibition (Tubulin (Homo sapiens) [7])	inhibition (Tubulin (Homo sapiens) [8])	Compound	IC50 (A549 [1])	IC50 (MDA-MB-231)	Activity (A549 [2])	Activity (A549 [3])	Activity (A549 [4])	Activity (A549 [5])	Activity (A549 [9])
–	–	–	–	COc1cc(C2=NOC(COc3ccc(-c4nnnn4-c4cc(OC)c(OC)c(OC)c4)cc3N)C2)ccc1O (stereo unspecified)	2.01 µM	3.62 µM	1.65%	70.71%	6.41%	21.18%	–
20%	–	–	–	CC(=O)O[C@H]1C(=O)[C@@]2(C)[C@H]([C@H](OC(=O)c3ccccc3)[C@]3(O)C[C@H](OC(=O)[C@H](O)[C@@H](NC(=O)c4ccccc4)c4ccccc4)C(C)=C1C3(C)C)[C@]1(OC(C)=O)CO[C@@H]1C[C@@H]2O	–	–	–	–	–	–	–
90%	Active	Active	Active	COc1ccc(F)c(C2=NOC(COc3ccc(-c4nnnn4-c4cc(OC)c(OC)c(OC)c4)cc3N)C2)c1 (stereo unspecified)	1.51 µM	2.83 µM	2.55%	10.23%	5.93%	81.29%	Active
–	–	–	–	COc1ccc(C2=NOC(COc3ccc(-c4nnnn4-c4cc(OC)c(OC)c(OC)c4)cc3N)C2)cc1O (stereo unspecified)	2.13 µM	3.38 µM	2.05%	69.87%	6.27%	21.81%	–
–	–	–	–	COc1ccc(OC)c(C2=NOC(COc3ccc(-c4nnnn4-c4cc(OC)c(OC)c(OC)c4)cc3N)C2)c1 (stereo unspecified)	1.93 µM	3.5 µM	0.95%	75.39%	5.02%	18.63%	–
–	–	–	–	COc1cc(-n2nnnc2-c2ccc(OCC3CC(c4cccc(Cl)c4)=NO3)c(N)c2)cc(OC)c1OC (stereo unspecified)	1.34 µM	2.18 µM	6.83%	49.34%	5.53%	38.3%	–
–	–	–	–	COc1cc(-n2nnnc2-c2ccc(OCC3CC(c4ccc(OC)c(OC)c4OC)=NO3)c(N)c2)cc(OC)c1OC (stereo unspecified)	2.03 µM	3.54 µM	1.08%	73.18%	5.4%	20.34%	–
–	–	–	–	COc1cc(-n2nnnc2-c2ccc(OCC3CC(c4ccc(C(F)(F)F)cc4)=NO3)c(N)c2)cc(OC)c1OC (stereo unspecified)	1.22 µM	1.75 µM	7.14%	43.08%	4.17%	45.61%	–
–	–	–	–	COc1ccc(-c2nnnn2-c2cc(OC)c(OC)c(OC)c2)cc1N	2.63 µM	3.17 µM	1.05%	72.31%	3.47%	23.1%	–
–	–	–	–	COc1cc(C2=NOC(COc3ccc(-c4nnnn4-c4cc(OC)c(OC)c(OC)c4)cc3N)C2)cc(OC)c1OC (stereo unspecified)	2.06 µM	3.23 µM	1.74%	72.62%	4.92%	20.72%	–
–	–	–	–	COc1cc(C2=NOC(c3cc(OC)c(OC)c(OC)c3)C2)ccc1O (stereo unspecified)	2.6 µM	3.6 µM	1.42%	65.98%	4.25%	27.86%	–
–	–	–	–	COc1ccc(/C=C\c2cc(OC)c(OC)c(OC)c2)cc1O [COMBRETASTATIN A4]	0.55 µM	0.1 µM	1.79%	7.47%	6.03%	84.71%	–
–	–	–	–	COc1ccc(C2=NOC(COc3ccc(-c4nnnn4-c4cc(OC)c(OC)c(OC)c4)cc3N)C2)cc1OC (stereo unspecified)	2.52 µM	3.57 µM	1.44%	73.08%	5.31%	20.18%	–
92%	Active	Active	Active	COc1cc(-n2nnnc2-c2ccc(OCC3CC(c4ccccc4F)=NO3)c(N)c2)cc(OC)c1OC (stereo unspecified)	1.49 µM	2.4 µM	3.19%	11.34%	6.04%	79.42%	Active
–	–	–	–	COc1ccc(C2=NOC(COc3ccc(-c4nnnn4-c4cc(OC)c(OC)c(OC)c4)cc3N)C2)cc1[N+](=O)[O-] (stereo unspecified)	2.22 µM	3.56 µM	1.84%	74.79%	5.29%	18.08%	–
–	–	–	–	COc1ccc(C2=NOC(COc3ccc(-c4nnnn4-c4cc(OC)c(OC)c(OC)c4)cc3N)C2)cc1N (stereo unspecified)	2.08 µM	3 µM	1.68%	75.87%	5.42%	17.03%	–
